Literature values as cited in patent US10179134B2, “Polymeric nanoparticles in a thermosensitive gel for coital-independent vaginal prophylaxis of HIV” (Creighton University, priority 2012, dated 2019).

Tested on: HeLa cells

O=C1Nc2ccc(Cl)cc2[C@@](C#CC2CC2)(C(F)(F)F)O1 [efavirenz]
concentration above which toxic to the HeLa cells: higher than 25 μM
